Structures can show the parent of a compound that is named as a salt.
Key:
[1] = test system: human or animal plasma; assay: Anticoagulation determination in plasma: activated partial thromboplastin time (APTT); type: biochemical; conditions: concentration doubling activated partial thromboplastin time
Procedure, shortened: (§1)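 Compounds spiked over a concentration range into citrated human, dog or rat plasma. PT used Thromboplastin-C; APTT used Actin reagent 120 s then 0.02 M CaCl2; TT used bovine thrombin 10 NIH units/mL. Concentration doubling clotting time estimated by linear extrapolation.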

[2] = molecular target: T1, Plasmin (Homo sapiens, UniProt P00747); assay: biochemical; conditions: read-out: Kass Plasmin (converted)
T1 construct: Human plasmin is purchased; purchased Boehringer Mannheim, Indianapolis, Indiana
T1 sequence (P00747 581-810 limits assumed): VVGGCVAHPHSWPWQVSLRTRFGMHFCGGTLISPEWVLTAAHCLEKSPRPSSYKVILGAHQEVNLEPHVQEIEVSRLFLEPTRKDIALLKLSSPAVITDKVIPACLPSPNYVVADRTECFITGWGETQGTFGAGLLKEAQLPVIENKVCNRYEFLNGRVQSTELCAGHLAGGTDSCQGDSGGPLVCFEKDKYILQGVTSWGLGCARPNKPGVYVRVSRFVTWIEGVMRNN
T1 sequence (P00747 97-580 partner limits assumed): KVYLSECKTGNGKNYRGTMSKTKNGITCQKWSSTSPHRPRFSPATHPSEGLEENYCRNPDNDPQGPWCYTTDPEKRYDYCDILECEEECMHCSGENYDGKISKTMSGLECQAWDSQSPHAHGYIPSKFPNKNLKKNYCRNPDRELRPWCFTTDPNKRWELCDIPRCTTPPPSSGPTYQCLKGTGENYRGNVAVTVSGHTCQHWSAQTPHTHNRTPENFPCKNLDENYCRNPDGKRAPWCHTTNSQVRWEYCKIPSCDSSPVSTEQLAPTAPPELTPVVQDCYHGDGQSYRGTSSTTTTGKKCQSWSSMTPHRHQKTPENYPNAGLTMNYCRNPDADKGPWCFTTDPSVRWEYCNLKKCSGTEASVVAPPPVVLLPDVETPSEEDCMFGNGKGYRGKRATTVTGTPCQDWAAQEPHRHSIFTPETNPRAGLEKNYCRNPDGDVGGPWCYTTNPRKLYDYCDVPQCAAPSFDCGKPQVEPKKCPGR
Protocol: (§2) By substantially following the procedures described above for human thrombin, and using other human blood coagulation system serine proteases and proteases of the fibrinolytic system with the appropriate chromogenic substrates, identified below, selectivity of the compounds of the present invention with respect to the coagulation factor serine proteases and with respect to the fibrinolytic system serine proteases are evaluated as well as their substantial lack of interference with serine proteases of the fibrinolytic system. Thrombin inhibitors preferably should spare fibrinolysis induced by urokinase, tissue plasminogen activator (t-PA) and streptokinase. This would be important to the therapeutic use of such agents as an adjunct to streptokinase, t-PA or urokinase thrombolytic therapy and to the use of such agents as an endogenous fibrinolysis-sparing (with respect to t-PA and urokinase) antithrombotic agent. In addition to the lack of interference with the amidase activity of the fibrinolytic proteases, such fibrinolytic system sparing can be studied by the use of human plasma clots and their lysis by the respective fibrinolytic plasminogen activators.
(§3) Human plasmin is purchased from Boehringer Mannheim, Indianapolis, Indiana; nt-PA is purchased as single chain activity reference from American Diagnostica, Greenwich, Connecticut; modified-t-PA6 (mt-PA6) is prepared at Eli Lilly and Company by procedure known in the art (See, Burck, et al., J. Biol. Chem., 265, […] (1990). Plasmin chromogenic substrate H-D-Val-Leu-Lys-p-nitroanilide and tissue plasminogen activator (t-PA) substrate H-D-Ile-Pro-Arg-p-nitroanilide are purchased from Kabi Vitrum, Stockholm, Sweden.

[3] = molecular target: t-PA (Homo sapiens, UniProt P00750); assay: biochemical; conditions: read-out: Kass t-PA (converted)
t-PA, sequence (P00750 36-562): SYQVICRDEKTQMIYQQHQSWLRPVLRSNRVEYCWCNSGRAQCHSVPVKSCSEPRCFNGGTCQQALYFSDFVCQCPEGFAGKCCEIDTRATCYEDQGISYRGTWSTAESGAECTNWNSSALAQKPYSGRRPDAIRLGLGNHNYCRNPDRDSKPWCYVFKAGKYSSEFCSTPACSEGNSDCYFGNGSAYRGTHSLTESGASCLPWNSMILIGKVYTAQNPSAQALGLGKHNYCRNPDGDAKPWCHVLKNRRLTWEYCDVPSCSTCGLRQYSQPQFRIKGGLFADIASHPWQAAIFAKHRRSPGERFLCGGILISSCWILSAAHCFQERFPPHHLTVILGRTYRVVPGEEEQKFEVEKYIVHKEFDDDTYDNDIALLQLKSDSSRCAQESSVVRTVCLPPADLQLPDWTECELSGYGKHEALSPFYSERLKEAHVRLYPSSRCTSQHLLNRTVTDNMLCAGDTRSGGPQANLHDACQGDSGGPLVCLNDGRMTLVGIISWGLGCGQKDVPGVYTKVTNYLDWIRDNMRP
Protocol: as §2, §3

[4] = molecular target: factor Xa (Homo sapiens, UniProt P00742); assay: biochemical; conditions: read-out: Kass Xa (converted)
factor Xa, sequence (P00742 235-488 limits assumed): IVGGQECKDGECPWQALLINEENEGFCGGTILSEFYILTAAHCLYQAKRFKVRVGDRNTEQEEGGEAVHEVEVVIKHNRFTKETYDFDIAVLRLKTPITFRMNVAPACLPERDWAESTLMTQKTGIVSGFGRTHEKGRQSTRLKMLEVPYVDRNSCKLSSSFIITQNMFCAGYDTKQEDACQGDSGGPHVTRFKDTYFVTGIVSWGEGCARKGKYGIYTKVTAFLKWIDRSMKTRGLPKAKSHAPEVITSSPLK
factor Xa, sequence (P00742 41-179 partner limits assumed): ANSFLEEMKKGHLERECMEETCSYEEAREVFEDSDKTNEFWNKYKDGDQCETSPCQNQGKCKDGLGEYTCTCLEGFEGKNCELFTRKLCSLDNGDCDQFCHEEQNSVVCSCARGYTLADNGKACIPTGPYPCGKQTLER
Protocol: as §2
Human factors X, Xa, IXa, XIa, and XIIa are purchased from Enzyme Research Laboratories, South Bend, Indiana; human urokinase from Leo Pharmaceuticals, Denmark; and recombinant activated Protein C (aPC) is prepared at Eli Lilly and Co. substantially according to U.S. Patent 4,981,952. Chromogenic substrates: N-Benzoyl-Ile-Glu-Gly-Arg-p-nitroanilide (for factor Xa); N-Cbz-D-Arg-Gly-Arg-p-nitroanilide (for factor IXa assay as the factor Xa substrate); Pyroglutamyl-Pro-Arg-p-nitroanilide (for Factor XIa and for aPC); H-D-Pro-Phe-Arg-p-nitroanilide (for factor XIIa); and Pyroglutamyl-Gly-Arg-p-nitroanilide (for urokinase); are purchased from KabiVitrum, Stockholm, Sweden, or from Midwest Biotech, Fishers, Indiana. Bovine trypsin is purchased from Worthington Biochemicals, Freehold, New Jersey, and human plasma kallikrein from Kabi Vitrum, Stockholm, Sweden. Chromogenic substrate H-D-Pro-Phe-Arg-p-nitroanilide for plasma kallikrein is purchased from Kabi Vitrum, Stockholm, Sweden. N-Benzoyl-Phe-Val-Arg-p-nitroanilide, the substrate for human thrombin and for trypsin, is synthesized according to procedures described above for the compounds of the present invention, using known methods of peptide coupling from commercially available reactants or purchased from Midwest Biotech, Fishers, Indiana.

[5] = test system: human or animal plasma; assay: Anticoagulation determination in plasma: thrombin time (TT); type: biochemical; conditions: concentration doubling thrombin time
Procedure, shortened: as §1

[6] = test system: human or animal plasma; assay: Anticoagulation determination in plasma: prothrombin time (PT); type: biochemical; conditions: concentration doubling prothrombin time
Procedure, shortened: as §1

[7] = molecular target: Human Thrombin (Homo sapiens, UniProt P00734); assay: biochemical; conditions: read-out: Kass Human Thrombin (converted)
[8] = molecular target: T2, Trypsin (Bos taurus, UniProt P00760); assay: biochemical; parameters: species or system Bovine; conditions: read-out: Kass Trypsin (converted)
T2 sequence (P00760 24-246): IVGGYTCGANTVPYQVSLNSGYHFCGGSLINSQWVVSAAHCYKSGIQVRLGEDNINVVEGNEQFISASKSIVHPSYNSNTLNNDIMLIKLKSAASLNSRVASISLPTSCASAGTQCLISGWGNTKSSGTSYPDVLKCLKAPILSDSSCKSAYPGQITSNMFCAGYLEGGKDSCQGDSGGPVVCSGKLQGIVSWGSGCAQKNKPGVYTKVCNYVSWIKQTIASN
Procedure, shortened: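 Bovine trypsin and human factor Xa amidase activity measured chromogenically, following the human thrombin procedure. Substrates: N-Benzoyl-Ile-Glu-Gly-Arg-p-nitroanilide for factor Xa and N-Benzoyl-Phe-Val-Arg-p-nitroanilide for trypsin. Used for selectivity profiling.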

Structure (SMILES) | Human Plasma Anticoagulation 2x Clotting time (ng/mL) APTT [1] | Kd [2] [µM] | Kd [3] [µM] | Kd [4] [µM] | Human Plasma Anticoagulation 2x Clotting time (ng/mL) TT [5] | Human Plasma Anticoagulation 2x Clotting time (ng/mL) PT [6] | Kd [7] [µM] | Kd [8] [µM]
CCS(=O)(=O)N[C@@H](C(=O)N1[C@H](C(=O)NCc2ccc(C(=N)N)cc2)C[C@@H]2CCCC[C@@H]21)c1ccccc1 (relative stereo) [Example 44, EtSO2-Phg-cis-Ohi-p-NHCH2C6H4C(NH)NH2. HCl] | 100 ng/mL | 0.556 | 25 | 1.52 | 4. ng/mL | 170 ng/mL | 0.00159 | 0.000385
Nc1ccc(CCNC(=O)[C@@H]2CCCN2C(=O)[C@H](N)Cc2ccccc2)cc1 [Example 14, D-Phe-Pro-p-NHCH2CH2C6H4NH2·HCl] |  | 21700 | > 1000 | 7140 | 21,000 ng/mL |  | 47.6 | 17900
N=C(N)c1cccc(CNC(=O)[C@@H]2CCCN2C(=O)[C@H](N)Cc2ccccc2)c1 [Example 16, D-Phe-Pro-m-NHCH2C6H4C(NH)NH2·0.75HCl] | 8,600 ng/mL | 588 | 833 | 196 | 650 ng/mL | 8,500 ng/mL | 1.03 | 50
N=C(N)c1ccc(CNC(=O)[C@@H]2CCCN2C(=O)[C@H]2CCCCN2)cc1 [Example 17, D-hPro-Pro-p-NHCH2C6H4C(NH)NH2·HCl] | 370 ng/mL | 41.7 | 294 | 20.4 | 26 ng/mL | 400 ng/mL | 0.0303 | 0.263
N=C(N)c1ccc(CNC(=O)[C@@H]2CCCN2C(=O)[C@@H]2NCC[C@@H]3CCCC[C@@H]32)cc1 [Example 18, 1-Piq-Pro-p-NHCH2C6H4C(NH)NH2·2HCl] | 79 ng/mL | 11.8 | 106 | 4.76 | 7 ng/mL | 170 ng/mL | 0.00556 | 0.0714
N=C(N)c1ccc(CNC(=O)[C@@H]2CCCN2C(=O)[C@H]2C[C@H]3CCCC[C@H]3CN2)cc1 [Example 19, D-3-Piq-Pro-p-NHCH2C6H4C(NH)NH2·3HCl] | 300 ng/mL | 6.25 | 179 | 7.14 | 58 ng/mL | 540 ng/mL | 0.0909 | 0.0244
N=C(N)c1ccc(CNC(=O)CN(CCc2ccccc2)C(=O)[C@H]2CCCCN2)cc1 [Example 21, D-hPro-N(PhCH2CH2)Gly-p-NHCH2-C6H4C(NH)NH2·2HCl] | 2,000 ng/mL | 32.3 | 500 | 1.61 | 160 ng/mL | 1,000 ng/mL | 0.278 | 1.04
N=C(N)c1ccc(CNC(=O)[C@@H]2C[C@H](Oc3ccccc3)CN2C(=O)[C@H]2CCCCN2)cc1 [Example 22, D-hPro-Pro(4-cis-PhO)-p-NHCH2-C6H4C(NH)NH2·2HCl] | 2,300 ng/mL | 23.8 | 250 | 23.3 | 170 ng/mL | 1,000 ng/mL | 0.333 | 0.118
CCS(=O)(=O)N[C@H](Cc1ccccc1)C(=O)N1CCC[C@H]1C(=O)NCc1ccc(C(=N)N)cc1 [Example 23, EtSO2-D-Phe-Pro-p-NHCH2-C6H4C(=NH)NH2·HCl] | 86 ng/mL | 2.27 | 3.23 | 7.14 | 7 ng/mL | 120 ng/mL | 0.0013 | 0.0476
CCS(=O)(=O)N[C@H](Cc1ccccc1)C(=O)N1CCC[C@H]1C(=O)NCc1cccc(C(=N)N)c1 [Example 24, EtSO2-D-Phe-Pro-m-NHCH2-C6H4C(=NH)NH2·HCl] | 25,900 ng/mL | > 1000 | > 1000 | > 1000 | 1,000 ng/mL | 25,000 ng/mL | 1.28 | 33.3
N=C(N)c1cccc(CNC(=O)[C@@H]2CCCN2C(=O)[C@@H]2NCC[C@@H]3CCCC[C@@H]32)c1 [Example 25, D-1-Piq-Pro-m-NHCH2-C6H4C(=NH)NH2·HCl] | 34,600 ng/mL | > 1000 | 100 | > 1000 | 1,430 ng/mL | 40,400 ng/mL | 2.33 | 100
CCS(=O)(=O)N[C@H](Cc1ccccc1)C(=O)N1CCC[C@H]1C(=O)NCCc1cccc(C(=N)N)c1 [Example 27, EtSO2-D-Phe-Pro-m-NHCH2CH2-C6H4C(=NH)NH2·HCl] | 27,800 ng/mL | > 1000 | 50 | 50 | 1,940 ng/mL | 27,000 ng/mL | 3.45 | 50
N=C(N)c1ccc(CCNC(=O)[C@@H]2CCCN2C(=O)[C@@H]2NCC[C@@H]3CCCC[C@@H]32)cc1 [Example 28, 1-Piq-Pro-p-NHCH2CH2-C6H4C(=NH)NH2·2HCl] | 8,100 ng/mL | > 1000 | > 1000 | 100 | 520 ng/mL | 8,300 ng/mL | 1.05 | 9.09
N=C(N)c1cccc(CCNC(=O)[C@@H]2CCCN2C(=O)[C@@H]2NCC[C@@H]3CCCC[C@@H]32)c1 [Example 29, 1-Piq-Pro-m-NHCH2CH2-C6H4C(=NH)NH2·2HCl] | 9,800 ng/mL | > 1000 | > 1000 | 50 | 750 ng/mL | 15.800 ng/mL | 1.32 | 50
CCS(=O)(=O)N[C@H](Cc1ccccc1)C(=O)N1CCC[C@H]1C(=O)NCCCc1ccc(C(=N)N)cc1 [Example 30, EtSO2-D-Phe-Pro-p-NHCH2CH2CH2-C6H4C(=NH)NH2·HCl] | 14,000 ng/mL | > 1000 | > 1000 | 50 | 1,000 ng/mL | 14,400 ng/mL | 1.82 | 33.3
